Test results: patent publication US11439586B2, “Intratumour injection formulation” (US Nano Food & Drug INC, priority 2018, dated 2022)
Converted amounts (≈) assume the structure as drawn. Where two headings read alike, the source gives them in different places. One block for each molecule: values may come before it.

Tests used:
[1] = Kinematic viscosity measurement of solvents; type: physicochemical; settings: 25 ° C.
physchem = settings: dehydrated ethanol, 25 °C, organic solvent or mixture
[2] = Solubility of antineoplastic drugs in biocompatible pharmaceutical solvents
[3] = cited from earlier work
[4] = tested on: subcutaneous transplantation of tumors; settings: for Survival of group after drug administration (mice alive): 11 mice at day 0;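 on all read-outs here: nude mice carrying subcutaneous right axillary tumor cell grafts, tumor volume computed as ab^2/2, negative control given blank solvent intratumorally, animals checked daily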
Procedure: After three generations of resuscitation, cells in logarithmic growth phase were digested and suspended in complete medium. The number of cells was calculated, with the number of cells expected to be over 3×10^7/ml. The right axillary part of nude mice was disinfected by alcohol. The cell suspension was injected subcutaneously with a dose of 0.15 ml. After injection, a round translucent liquid bubble bulged up. The state of the nude mice and the growth of tumors were observed every day after injection. […] The successful nude mice were randomly divided into four groups: 11 in the positive control group, 11 in the high dose group, 11 in the low dose group and 12 in the negative control group. After grouping, intravenous injection was administered in the positive control group, with the other groups administered different tested product or blank solvent by intratumoral injection.
The longest diameter a (mm) and the shortest diameter b (mm) of tumors were measured by electronic Vernier caliper. The tumor volume of nude mice was calculated by formula: TV=ab^2/2, and the relative tumor volume (RTV) was acquired as RTV=V t/Vo. Vo was the volume of tumors before injection and V t was used to measure the volume of tumors some days after first injection. […] The mice were killed 21 days after injection for ethical reasons.

[5] = Medium Chain Triglycerides, 25 °C, oil or lipid
[6] = N-N dimethylacetylamide, 25 °C, organic solvent or mixture
[7] = PEG-400, 25 °C, organic solvent or mixture
[8] = PEG-400, 110 °C, organic solvent or mixture
[9] = Tween-80, 25 °C, organic solvent or mixture
[10] = glycerin, 25 °C, organic solvent or mixture
[11] = soybean oil, 25 °C, oil or lipid
[12] = PEG-300, 25 °C, organic solvent or mixture

Kinematic viscosity measurement [1]: 1.41 mm^2/s
Compound: CCO [Dehydrated ethanol]

solubility (physchem): 118000 to 126000 µg/mL (≈ 147 to 156 mM)
solubility [2, 5]: < 10000 µg/mL
solubility ([2]; Medium Chain Triglycerides, 105 °C, oil or lipid): 30000 to 35000 µg/mL (≈ 37.1 to 43.3 mM)
solubility [2, 6]: > 50000 µg/mL
solubility [2, 7]: < 10000 µg/mL
solubility [2, 8]: > 40000 µg/mL
solubility [2, 9]: < 40000 µg/mL
solubility ([2]; Tween-80, 120 °C, organic solvent or mixture): > 40000 µg/mL
solubility [2, 10]: < 1000 µg/mL
solubility [2, 11]: < 10000 µg/mL
solubility ([2]; soybean oil, 140 °C, oil or lipid): 12500 to 15000 µg/mL (≈ 15.5 to 18.6 mM)
Compound: CC(=O)O[C@@]12CO[C@@H]1C[C@H](O)[C@@]1(C)C(=O)[C@H](O)C3=C(C)[C@@H](OC(=O)[C@H](O)[C@@H](NC(=O)OC(C)(C)C)c4ccccc4)C[C@@](O)([C@@H](OC(=O)c4ccccc4)[C@H]21)C3(C)C [Docetaxel]

Kinematic viscosity measurement [1]: 908.8 mm^2/s
Compound: OCC(O)CO [Glycerol]

Compound: CC[C@@]1(O)C(=O)OCc2c1cc1n(c2=O)Cc2cc3cc(O)ccc3nc2-1 [Hydroxycamptothecine]
solubility (physchem): < 1000 µg/mL
solubility [2, 5]: < 1000 µg/mL
solubility [2, 6]: ~71400 µg/mL (≈ 196 mM)
solubility [2, 12]: < 10000 µg/mL
solubility ([2]; PEG-300, 90 °C, organic solvent or mixture): > 10000 µg/mL
solubility [2, 9]: < 1000 µg/mL
solubility [2, 10]: < 1000 µg/mL

Compound: CC(=O)O[C@H]1C(=O)[C@@]2(C)[C@H]([C@H](OC(=O)c3ccccc3)[C@]3(O)C[C@H](OC(=O)[C@H](O)[C@@H](NC(=O)c4ccccc4)c4ccccc4)C(C)=C1C3(C)C)[C@]1(OC(C)=O)CO[C@@H]1C[C@@H]2O [Paclitaxel]
solubility (physchem): > 6000 µg/mL
intravenous LD50 ([3]; mice): 12 mg/kg
solubility [2, 5]: < 6000 µg/mL
solubility ([2]; Medium Chain Triglycerides, 120 °C, oil or lipid): > 6000 µg/mL
solubility [2, 6]: > 50000 µg/mL
solubility [2, 7]: < 40000 µg/mL
solubility [2, 8]: > 40000 µg/mL
solubility [2, 9]: < 6000 µg/mL
solubility ([2]; Tween-80, 110 °C, organic solvent or mixture): > 6000 µg/mL
solubility [2, 10]: < 1000 µg/mL
solubility [2, 11]: < 6000 µg/mL
solubility ([2]; soybean oil, 145 °C, oil or lipid): > 6000 µg/mL

solubility (physchem): < 130 µg/mL
solubility [2, 5]: < 200 µg/mL
solubility ([2]; Medium Chain Triglycerides, 200 °C, oil or lipid): < 200 µg/mL
solubility [2, 6]: > 105000 µg/mL
solubility [2, 12]: < 10000 µg/mL
solubility ([2]; PEG-300, 140 °C, organic solvent or mixture): > 50000 µg/mL
solubility [2, 9]: < 1700 µg/mL
solubility [2, 10]: < 1000 µg/mL
Compound: COc1cc([C@@H]2c3cc4c(cc3[C@@H](O[C@@H]3O[C@@H]5CO[C@@H](c6cccs6)O[C@H]5[C@H](O)[C@H]3O)[C@H]3COC(=O)[C@H]23)OCO4)cc(OC)c1O [Teniposide]

Compound: COc1cc([C@@H]2c3cc4c(cc3[C@@H](O[C@@H]3O[C@@H]5CO[C@@H](C)O[C@H]5[C@H](O)[C@H]3O)[C@H]3COC(=O)[C@H]23)OCO4)cc(OC)c1O [etoposide]
Intravenous LD50 of the mice [3]: Intravenous LD50 of the mice: 15 mg/kg
30% ST, LDG/PCG ([4]; 30% survival time, low dose group (intratumoral) to positive control group (intravenous)): 200% (18/9 = 2)
Average Tumor Volume V3 ([4]; High dosage (intratumoral, 55 mg/kg), 3 days after first injection): 268.5 mm^3
Average Tumor Volume V6 ([4]; High dosage (intratumoral, 55 mg/kg), 6 days after first injection): 364.2 mm^3
HV6/NV6, tumor volume relative to negative control ([4]; High dosage (intratumoral, 55 mg/kg), 6 days after injection): HV6/NV6 = 90.2%
Average Tumor Volume V9 ([4]; High dosage (intratumoral, 55 mg/kg), 9 days after first injection): 472.5 mm^3
Average Tumor Volume V11 ([4]; High dosage (intratumoral, 55 mg/kg), 11 days after first injection): 384.0 mm^3
Average Tumor Volume V12 ([4]; High dosage (intratumoral, 55 mg/kg), 12 days after first injection): 276.3 mm^3
HV12/NV, tumor volume relative to negative control ([4]; High dosage (intratumoral, 55 mg/kg), 12 days after injection): HV12/NV = 38.0%
Average Tumor Volume V0 ([4]; High dosage (intratumoral, 55 mg/kg), before injection): 174.4 mm^3
Survival of group after drug administration (mice alive) ([4]; High dosage intratumoral, Day 6): 11
Survival of group after drug administration (mice alive) ([4]; High dosage intratumoral, Day 9): 11
Survival of group after drug administration (mice alive) ([4]; High dosage intratumoral, Day 11): 11
Survival of group after drug administration (mice alive) ([4]; High dosage intratumoral, Day 12): 2
Survival of group after drug administration (mice alive) ([4]; High dosage intratumoral, Day 15): 0
Survival of group after drug administration (mice alive) ([4]; IV. group, Day 6): 11
Survival of group after drug administration (mice alive) ([4]; IV. group, Day 9): 9
Survival of group after drug administration (mice alive) ([4]; IV. group, Day 11): 2
Survival of group after drug administration (mice alive) ([4]; IV. group, Day 12): 0
Survival of group after drug administration (mice alive) ([4]; Low dosage intratumoral, Day 6): 11
Survival of group after drug administration (mice alive) ([4]; Low dosage intratumoral, Day 9): 11
Survival of group after drug administration (mice alive) ([4]; Low dosage intratumoral, Day 11): 11
Survival of group after drug administration (mice alive) ([4]; Low dosage intratumoral, Day 12): 11
Survival of group after drug administration (mice alive) ([4]; Low dosage intratumoral, Day 15): 6
Survival of group after drug administration (mice alive) ([4]; Low dosage intratumoral, Day 18): 4
Survival of group after drug administration (mice alive) ([4]; Low dosage intratumoral, Day 19): 3
Survival of group after drug administration (mice alive) ([4]; Low dosage intratumoral, Day 20): 3
MST ([4]; intravenous group (positive control)): 9 days
outcome of local intratumor injection, in words ([4]; low dosage group): superior to the intravenous injection and the negative control group
mice surviving ([4]; low dosage group (11 mice), 20 days after injection): three
mice still alive ([4]; low dosage group (11 mice), 21 days after first injection): three
MST ([4]; low dosage group, intratumoral injection): 15 days
MST, HDG/PCG ([4]; median survival time, high dose group (intratumoral) to positive control group (intravenous)): 122% (11/9 = 1.22)
LV12/NV (tumor volume, low dose group to negative control group) ([4]; twelve (12) days after injection, intratumoral injection, low dose group): 49.3%
